Patent US20230265116A1, “DEGRADATION OF (EGFR) BY CONJUGATION OF EGFR INHIBITORS WITH E3 LIGASE LIGAND AND METHODS OF USE” (BEIGENE, LTD., priority 2020, published 2023)

Tests used:
Format in all cases: cell-based
[1] = system: EGFR Del19/T790M/C797S (H1975-clone #28); assay: EGFR degradation HTRF assay, H1975-clone #28 DTC cells; conditions: H1975 # 28 DTC cells; for DC50: EGFR degradation, IC50 (DC50) from curve fit, read-out: DC50(nM) H1975 # 28 DTC; for Dmax (%) H1975 # 28 DTC: maximum percentage of inhibition (degradation)
Summary of the method: (§1)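 Compounds (top 10 uM, 5-fold, 8 points, 0.2% DMSO) incubated 16 h at 37 °C on homozygous clones: #23 Del19/C797S, #28 Del19/T790M/C797S, exogenous EGFR only in H1975. HTRF on lysates quantified remaining EGFR relative to DMSO; four-parameter fit gave DC50 and Dmax.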

[2] = system: EGFR Del19/C797S (H1975-clone #23); assay: EGFR degradation HTRF assay, H1975-clone #23 DC cells; conditions: 16h treatment; for H1975 #23 DC Dmax (%): maximum percentage of degradation; for DC50: H1975 #23 DC, read-out: H1975 #23 DC DC50
Summary of the method: as §1

[3] = molecular target: T1, EGFR L858R/T790M/C797S (BaF3-LTC cells) (Homo sapiens, UniProt P00533, C797S/L858R/T790M); assay: EGFR degradation HTRF assay, BaF3-LTC cells; conditions: BaF3-LTC cells; for DC50: EGFR degradation, IC50 (DC50) from curve fit, read-out: DC50(nM) BaF3-LTC; for Dmax: maximum percentage of inhibition (degradation), read-out: Dmax (%) BaF3-LTC
T1 construct: expressed in transfected cells; host or cells: BaF3
Summary of the method: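 EGFR remaining after a 16 h, 37 °C exposure (8 doses, 5-fold steps from 10 uM final, 0.2% DMSO) was quantified by HTRF antibodies in cell lysate. Percent inhibition relative to DMSO control was fitted by four-parameter logistic to give DC50; Dmax denotes maximal degradation.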

[4] = molecular target: T2, EGFR L858R/C797S (BaF3 LC cells) (Homo sapiens, UniProt P00533, C797S/L858R); assay: EGFR degradation HTRF assay, BaF3 LC cells; conditions: BaF3 LC, 16h treatment; for DC50: read-out: BaF3 LC DC50; for Dmax: maximum percentage of degradation, read-out: BaF3 LC Dmax (%)
T2 construct: expressed in transfected cells; host or cells: BaF3
T2 sequence (P00533 25-1210 C797S/L858R): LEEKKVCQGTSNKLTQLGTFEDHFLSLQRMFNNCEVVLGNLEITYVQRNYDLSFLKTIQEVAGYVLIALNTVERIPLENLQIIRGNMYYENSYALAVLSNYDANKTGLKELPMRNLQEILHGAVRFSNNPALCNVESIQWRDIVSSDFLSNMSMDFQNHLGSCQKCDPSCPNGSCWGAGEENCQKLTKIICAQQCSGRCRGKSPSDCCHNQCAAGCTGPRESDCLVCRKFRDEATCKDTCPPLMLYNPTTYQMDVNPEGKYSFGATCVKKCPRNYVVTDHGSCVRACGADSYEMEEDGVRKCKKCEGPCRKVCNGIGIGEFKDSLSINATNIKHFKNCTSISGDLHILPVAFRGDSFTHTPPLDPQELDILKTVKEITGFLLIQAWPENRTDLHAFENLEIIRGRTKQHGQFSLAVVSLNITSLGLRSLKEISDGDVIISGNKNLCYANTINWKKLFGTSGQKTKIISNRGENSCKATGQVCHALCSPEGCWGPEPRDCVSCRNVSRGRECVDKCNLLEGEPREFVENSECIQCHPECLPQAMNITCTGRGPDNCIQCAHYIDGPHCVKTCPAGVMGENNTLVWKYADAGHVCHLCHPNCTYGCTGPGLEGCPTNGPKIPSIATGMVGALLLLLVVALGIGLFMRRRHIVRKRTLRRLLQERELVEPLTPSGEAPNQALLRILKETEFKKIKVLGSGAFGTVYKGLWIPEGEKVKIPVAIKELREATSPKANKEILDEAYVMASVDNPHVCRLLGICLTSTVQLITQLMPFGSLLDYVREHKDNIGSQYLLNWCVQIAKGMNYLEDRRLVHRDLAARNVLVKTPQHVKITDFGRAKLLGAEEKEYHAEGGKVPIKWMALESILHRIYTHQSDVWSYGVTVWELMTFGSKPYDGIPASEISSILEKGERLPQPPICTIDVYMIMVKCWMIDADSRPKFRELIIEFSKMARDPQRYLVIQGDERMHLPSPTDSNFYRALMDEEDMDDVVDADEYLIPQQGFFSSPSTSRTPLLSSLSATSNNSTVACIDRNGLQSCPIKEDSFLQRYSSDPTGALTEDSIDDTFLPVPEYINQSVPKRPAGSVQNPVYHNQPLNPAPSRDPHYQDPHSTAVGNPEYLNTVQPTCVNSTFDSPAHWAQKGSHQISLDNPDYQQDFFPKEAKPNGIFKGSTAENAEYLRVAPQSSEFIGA

T1 sequence (P00533 25-1210 T790M/C797S/L858R): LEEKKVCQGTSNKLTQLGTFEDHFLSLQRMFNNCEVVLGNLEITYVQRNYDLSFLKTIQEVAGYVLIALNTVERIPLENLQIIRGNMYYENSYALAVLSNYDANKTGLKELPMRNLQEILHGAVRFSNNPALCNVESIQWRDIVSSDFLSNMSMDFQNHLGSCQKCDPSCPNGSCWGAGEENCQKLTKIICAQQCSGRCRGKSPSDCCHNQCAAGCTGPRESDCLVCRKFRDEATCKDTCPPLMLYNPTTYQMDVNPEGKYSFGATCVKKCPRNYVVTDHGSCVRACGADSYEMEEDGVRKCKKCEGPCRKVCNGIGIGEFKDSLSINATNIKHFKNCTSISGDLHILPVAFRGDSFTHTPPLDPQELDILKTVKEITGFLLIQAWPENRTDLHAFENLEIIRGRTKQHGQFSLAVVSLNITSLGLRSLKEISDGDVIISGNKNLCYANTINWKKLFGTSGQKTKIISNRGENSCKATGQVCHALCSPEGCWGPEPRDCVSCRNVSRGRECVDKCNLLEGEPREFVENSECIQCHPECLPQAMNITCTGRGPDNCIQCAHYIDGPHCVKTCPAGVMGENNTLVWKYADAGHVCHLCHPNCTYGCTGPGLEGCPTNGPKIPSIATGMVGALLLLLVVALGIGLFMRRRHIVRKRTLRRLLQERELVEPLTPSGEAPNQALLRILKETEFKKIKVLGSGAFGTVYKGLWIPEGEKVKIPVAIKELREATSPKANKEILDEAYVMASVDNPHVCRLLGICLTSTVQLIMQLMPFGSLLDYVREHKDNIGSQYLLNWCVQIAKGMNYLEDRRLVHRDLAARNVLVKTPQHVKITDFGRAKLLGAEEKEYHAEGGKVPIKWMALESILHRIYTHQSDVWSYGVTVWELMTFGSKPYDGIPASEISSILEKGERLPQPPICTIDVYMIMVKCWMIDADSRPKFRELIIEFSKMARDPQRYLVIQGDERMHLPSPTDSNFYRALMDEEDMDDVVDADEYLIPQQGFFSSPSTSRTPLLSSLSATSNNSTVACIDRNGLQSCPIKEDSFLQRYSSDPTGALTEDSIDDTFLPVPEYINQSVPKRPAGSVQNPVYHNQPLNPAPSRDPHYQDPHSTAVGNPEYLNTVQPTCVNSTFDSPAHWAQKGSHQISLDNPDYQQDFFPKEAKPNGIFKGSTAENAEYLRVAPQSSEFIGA

SMILES | DC50 [1] [nM] | Dmax (%) H1975 # 28 DTC [1] [%] | H1975 #23 DC Dmax (%) [2] [%] | DC50 [2] [nM] | DC50 [3] [nM] | DC50 [4] [nM] | Dmax [3] [%] | Dmax [4] [%]
CCOc1cc(N2CCC(N3CCN(CCc4cccc5c4n(C)c(=O)n5C4CCC(=O)NC4=O)CC3)CC2)c(CC)cc1Nc1ncc(Br)c(Nc2ccc3nc(CC)ccc3c2P(C)(C)=O)n1 (stereo not drawn) [Example 752, 3-(4-(2-(4-(1-(4-((5-bromo-4-((5-(dimethylphosphoryl)-2-ethylquinolin-6-yl)amino)pyrimidin-2-yl)amino)-5-ethoxy-2-ethylphenyl)piperidin-4-yl)piperazin-1-yl)ethyl)-3-methyl-2-oxo-2,3-dihydro-1H-benzo[d]imidazol-1-yl)piperidine-2,6-dione] | 1 | 77.12 | 78.99 | 1.76 | 6.34 | 2.23 | – | –
CCc1ncc2c(P(C)(C)=O)c(Nc3nc(Nc4cc(CC)c(N5CCC(N6CCN(CCc7cc(F)c([C@H]8CCC(=O)NC8=O)c(F)c7)CC6)CC5)cc4OC)ncc3Br)ccc2n1 [Example 589, (R)-3-(4-(2-(4-(1-(4-((5-bromo-4-((5-(dimethylphosphoryl)-2-ethylquinazolin-6-yl)amino)pyrimidin-2-yl)amino)-2-ethyl-5-methoxyphenyl)piperidin-4-yl)piperazin-1-yl)ethyl)-2,6-difluorophenyl)piperidine-2,6-dione] | 0.844 | 86.23 | 84.51 | 2.2 | 4.34 | 20.3 | – | –
CCc1cc(Nc2ncc(Br)c(Nc3ccc4nc(C)c(F)cc4c3P(C)(C)=O)n2)c(OC)cc1N1CCC(N2CCN(C(=O)[C@@H]3CCN(c4cc(F)c([C@H]5CCC(=O)NC5=O)c(F)c4)C3)CC2)CC1 [Example 488, (R)-3-(4-((R)-3-(4-(1-(4-((5-bromo-4-((5-(dimethylphosphoryl)-3-fluoro-2-methylquinolin-6-yl)amino)pyrimidin-2-yl)amino)-2-ethyl-5-methoxyphenyl)piperidin-4-yl)piperazine-1-carbonyl)pyrrolidin-1-yl)-2,6-difluorophenyl)piperidine-2,6-dione] | 0.97 | 84.91 | 67.73 | 2.23 | 3.52 | 17.9 | – | –
CCc1ccc2c(P(C)(C)=O)c(Nc3nc(Nc4cc(CC)c(N5CCC(N6CCN(CCc7cccc8c7oc(=O)n8C7CCC(=O)NC7=O)CC6)CC5)cc4OC)ncc3Br)ccc2n1 (stereo not drawn) [Example 509, 3-(7-(2-(4-(1-(4-((5-bromo-4-((5-(dimethylphosphoryl)-2-ethylquinolin-6-yl)amino)pyrimidin-2-yl)amino)-2-ethyl-5-methoxyphenyl)piperidin-4-yl)piperazin-1-yl)ethyl)-2-oxobenzo[d]oxazol-3(2H)-yl)piperidine-2,6-dione] | 0.887 | 79.34 | 77.77 | 1.94 | 7.93 | 15.5 | 92.5 | 80.4
CCc1cc(Nc2ncc(Br)c(Nc3ccc4c(=O)n(C5CC5)ncc4c3P(C)(C)=O)n2)c(OC)cc1N1CCC(N2CCN(C(=O)[C@@H]3CCN(c4cc(F)c([C@H]5CCC(=O)NC5=O)c(F)c4)C3)CC2)CC1 [Example 526, (R)-3-(4-((R)-3-(4-(1-(4-((5-bromo-4-((2-cyclopropyl-5-(dimethylphosphoryl)-1-oxo-1,2-dihydrophthalazin-6-yl)amino)pyrimidin-2-yl)amino)-2-ethyl-5-methoxyphenyl)piperidin-4-yl)piperazine-1-carbonyl)pyrrolidin-1-yl)-2,6-difluorophenyl)piperidine-2,6-dione] | 0.574 | 83.99 | 52.26 | 5.87 | 3.77 | 40.3 | 96.3 | 74.6
CCc1cc(Nc2ncc(Br)c(Nc3ccc4c(=O)n(C)ncc4c3P(C)(C)=O)n2)c(OC)cc1N1CCC(N2CCN(C(=O)[C@@H]3CCN(c4cc(F)c([C@H]5CCC(=O)NC5=O)c(F)c4)C3)CC2)CC1 [Example 528, (R)-3-(4-((R)-3-(4-(1-(4-((5-bromo-4-((5-(dimethylphosphoryl)-2-methyl-1-oxo-1,2-dihydrophthalazin-6-yl)amino)pyrimidin-2-yl)amino)-2-ethyl-5-methoxyphenyl)piperidin-1)piperazine-1-carbonyl)pyrrolidin-1-yl)2,6-difluorophenyl)piperidine-2,6-dione] | 0.632 | 86.11 | 54.87 | 1.58 | 3.63 | 14.9 | 97.3 | 83.9
CCc1ccc2c(P(C)(C)=O)c(Nc3nc(Nc4cc(C)c(N5CCC(N6CCN(CCc7cccc8c7n(C)c(=O)n8C7CCC(=O)NC7=O)CC6)CC5)cc4OC4CC4)ncc3Br)ccc2n1 (stereo not drawn) [Example 584, 3-(4-(2-(4-(1-(4-((5-bromo-4-((5-(dimethylphosphoryl)-2-ethylquinolin-6-yl)amino)pyrimidin-2-yl)amino)-5-cyclopropoxy-2-methylphenyl)piperidin-4-yl)piperazin-1-yl)ethyl)-3-methyl-2-oxo-2,3-dihydro-1H-benzo[d]imidazol-1-yl)piperidine-2,6-dione] | 0.634 | 79.5 | 70.66 | 2.7 | 2.72 | 4.9 | – | –
CCc1cc(Nc2ncc(Br)c(Nc3ccc4nc(C)ccc4c3P(C)(C)=O)n2)c(OC)cc1N1CCC(N2CCN(C(=O)C3CN(c4cccc5c4C(C)(C)C(=O)N5C4CCC(=O)NC4=O)C3)CC2)CC1 (stereo not drawn) [Example 507] | 0.5 | 68.8 | 52.12 | 2.41 | 4.3 | 8.97 | 89.8 | 94
CCOc1cc(N2CCC(N3CCN(CCc4cc(C)cc5c4oc(=O)n5C4CCC(=O)NC4=O)CC3)CC2)c(CC)cc1Nc1ncc(Br)c(Nc2ccc3nc(CC)ccc3c2P(C)(C)=O)n1 (stereo not drawn) [Example 469, 3-(7-(2-(4-(1-(4-((5-bromo-4-((5-(dimethylphosphoryl)-2-ethylquinolin-6-yl)amino)pyrimidin-2-yl)amino)-5-ethoxy-2-ethylphenyl)piperidin-4-yl)piperazin-1-yl)ethyl)-5-methyl-2-oxobenzo[d]oxazol-3(2H)-yl)piperidine-2,6-dione] | 2.6 | 81.32 | 73.64 | 1.48 | 11.6 | 21.7 | 90 | 89.8
CCOc1cc(N2CCC(N3CCN(CCc4cccc5c4oc(=O)n5C4CCC(=O)NC4=O)CC3)CC2)c(CC)cc1Nc1ncc(Br)c(Nc2ccc3nc(CC)ccc3c2P(C)(C)=O)n1 (stereo not drawn) [Example 473, 3-(7-(2-(4-(1-(4-((5-bromo-4-((5-(dimethylphosphoryl)-2-ethylquinolin-6-yl)amino)pyrimidin-2-yl)amino)-5-ethoxy-2-ethylphenyl)piperidin-4-yl)piperazin-1-yl)ethyl)-2-oxobenzo[d]oxazol-3(2H)-yl)piperidine-2,6-dione] | 0.616 | 83.08 | 82.45 | 12.8 | 9.51 | 73.4 | – | –
CCOc1cc(N2CCC(N3CCN(CCc4cccc5c4C4(CC4)C(=O)N5C4CCC(=O)NC4=O)CC3)CC2)c(CC)cc1Nc1ncc(Br)c(Nc2ccc3nc(CC)ccc3c2P(C)(C)=O)n1 (stereo not drawn) [Example 571, 3-(4′-(2-(4-(1-(4-((5-bromo-4-((5-(dimethylphosphoryl)-2-ethylquinolin-6-yl)amino)pyrimidin-2-yl)amino)-5-ethoxy-2-ethylphenyl)piperidin-4-yl)piperazin-1-yl)ethyl)-2′-oxospiro[cyclopropane-1,3′-indolin]-1′-yl)piperidine-2,6-dione] | 0.946 | 77.08 | 75.83 | 3.05 | 3.49 | 13.2 | – | –
CCOc1cc(N2CCC(N3CCN(CCc4cc(F)c([C@H]5CCC(=O)NC5=O)c(F)c4)CC3)CC2)c(CC)cc1Nc1ncc(Br)c(Nc2cc(F)c3nc(C)ccc3c2P(C)(C)=O)n1 [Example 534, (R)-3-(4-(2-(4-(1-(4-((5-bromo-4-((5-(dimethylphosphoryl)-8-fluoro-2-methylquinolin-6-yl)amino)pyrimidin-2-yl)amino)-5-ethoxy-2-ethylphenyl)piperidin-4-yl)piperazin-1-yl)ethyl)-2,6-difluorophenyl)piperidine-2,6-dione] | 0.749 | 83.48 | 80.71 | 2.16 | 4.2 | 10.2 | 93.7 | 90.2
